Measured values from the supplement of paper PMC10307832.

What was measured:
Test in all cases: relative viability (nuclei count vs DMSO), 5 days (fraction); higher = more cells survive
Bemcentinib + Trametinib = compound: Nc1nc(Nc2ccc3c(c2)CC[C@@H](N2CCCC2)CC3)nn1-c1cc2c(nn1)-c1ccccc1CCC2 [Bemcentinib] + CC(=O)Nc1cccc(-n2c(=O)n(C3CC3)c(=O)c3c(Nc4ccc(I)cc4F)n(C)c(=O)c(C)c32)c1 [Trametinib] (partner 0.02 µM)
Procedure, shortened: (§1)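 Relative viability was taken as the ratio of nuclei in treated wells to nuclei in vehicle wells. Lung cancer cell lines in 1536-well plates received compounds by pin tool one day after seeding, either one drug alone or a fixed anchor-drug dose plus five library-drug doses (not always all listed) in √10 steps. Nuclei were counted on 4× images after 5 days of treatment, and values are medians of duplicate plates.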

[1] = compound: CC1=CC=C(C=C1)C(=O)CN2C3=C(CCCC3)SC2=N [Pifithrin_alpha] + Nc1ncn([C@H]2C[C@H](O)[C@@H](CO)O2)c(=O)n1 [Decitabine] (partner 2 µM)
Procedure, shortened: as §1

Axitinib + Dasatinib = compound: CNC(=O)c1ccccc1Sc1ccc2c(/C=C/c3ccccn3)n[nH]c2c1 [Axitinib] + Cc1nc(Nc2ncc(C(=O)Nc3c(C)cccc3Cl)s2)cc(N2CCN(CCO)CC2)n1 [Dasatinib] (partner 0.075 µM)
Procedure, shortened: as §1

Bemcentinib + Bortezomib = compound: Nc1nc(Nc2ccc3c(c2)CC[C@@H](N2CCCC2)CC3)nn1-c1cc2c(nn1)-c1ccccc1CCC2 [Bemcentinib] + CC(C)C[C@H](NC(=O)[C@H](Cc1ccccc1)NC(=O)c1cnccn1)B(O)O [Bortezomib] (partner 0.002 µM)
Procedure, shortened: as §1

NCI-H441
relative viability (Bemcentinib + Trametinib; first compound 0.04 µM): 0.294
relative viability (Bemcentinib + Trametinib; first compound 0.1265 µM): 0.435
relative viability (Bemcentinib + Trametinib; first compound 0.4 µM): 0.499
relative viability (Bemcentinib + Trametinib; first compound 1.265 µM): 0.347
relative viability (Bemcentinib + Trametinib; first compound 4 µM): 0.409
relative viability ([1]; first compound 1 µM): 0.233
relative viability ([1]; first compound 3.162 µM): 0.294
relative viability ([1]; first compound 10 µM): 0.212
relative viability ([1]; first compound 100 µM): 0.301
relative viability (Axitinib + Dasatinib; first compound 0.005 µM): 0.592
relative viability (Axitinib + Dasatinib; first compound 0.01581 µM): 0.722
relative viability (Axitinib + Dasatinib; first compound 0.05 µM): 0.595
relative viability (Axitinib + Dasatinib; first compound 0.1581 µM): 0.575
relative viability (Axitinib + Dasatinib; first compound 0.5 µM): 0.604
relative viability (Bemcentinib + Bortezomib; first compound 0.04 µM): 0.923
relative viability (Bemcentinib + Bortezomib; first compound 0.1265 µM): 0.689
relative viability (Bemcentinib + Bortezomib; first compound 0.4 µM): 0.455
relative viability (Bemcentinib + Bortezomib; first compound 1.265 µM): 0.407
relative viability (Bemcentinib + Bortezomib; first compound 4 µM): 0.507

NCI-H2347
relative viability (Bemcentinib + Trametinib; first compound 0.04 µM): 0.254
relative viability (Bemcentinib + Trametinib; first compound 0.1265 µM): 0.312
relative viability (Bemcentinib + Trametinib; first compound 0.4 µM): 0.232
relative viability (Bemcentinib + Trametinib; first compound 1.265 µM): 0.307
relative viability (Bemcentinib + Trametinib; first compound 4 µM): 0.302
relative viability ([1]; first compound 1 µM): 0.576
relative viability ([1]; first compound 3.162 µM): 0.685
relative viability ([1]; first compound 10 µM): 0.603
relative viability ([1]; first compound 31.62 µM): 0.65
relative viability ([1]; first compound 100 µM): 0.698
relative viability (Axitinib + Dasatinib; first compound 0.005 µM): 0.304
relative viability (Axitinib + Dasatinib; first compound 0.01581 µM): 0.324
relative viability (Axitinib + Dasatinib; first compound 0.05 µM): 0.288
relative viability (Axitinib + Dasatinib; first compound 0.1581 µM): 0.308
relative viability (Axitinib + Dasatinib; first compound 0.5 µM): 0.323
relative viability (Bemcentinib + Bortezomib; first compound 0.04 µM): 0.831
relative viability (Bemcentinib + Bortezomib; first compound 0.1265 µM): 1.03
relative viability (Bemcentinib + Bortezomib; first compound 0.4 µM): 0.967
relative viability (Bemcentinib + Bortezomib; first compound 1.265 µM): 0.901
relative viability (Bemcentinib + Bortezomib; first compound 4 µM): 1.11

NCI-H1792
relative viability (Bemcentinib + Trametinib; first compound 0.04 µM): 0.461
relative viability (Bemcentinib + Trametinib; first compound 0.1265 µM): 0.422
relative viability (Bemcentinib + Trametinib; first compound 0.4 µM): 0.549
relative viability (Bemcentinib + Trametinib; first compound 1.265 µM): 0.569
relative viability (Bemcentinib + Trametinib; first compound 4 µM): 0.43
relative viability ([1]; first compound 1 µM): 0.457
relative viability ([1]; first compound 3.162 µM): 0.48
relative viability ([1]; first compound 10 µM): 0.624
relative viability ([1]; first compound 100 µM): 0.423
relative viability (Axitinib + Dasatinib; first compound 0.005 µM): 0.763
relative viability (Axitinib + Dasatinib; first compound 0.01581 µM): 0.749
relative viability (Axitinib + Dasatinib; first compound 0.05 µM): 0.618
relative viability (Axitinib + Dasatinib; first compound 0.1581 µM): 0.761
relative viability (Axitinib + Dasatinib; first compound 0.5 µM): 0.838
relative viability (Bemcentinib + Bortezomib; first compound 0.04 µM): 1.02
relative viability (Bemcentinib + Bortezomib; first compound 0.1265 µM): 1.17
relative viability (Bemcentinib + Bortezomib; first compound 0.4 µM): 1.19
relative viability (Bemcentinib + Bortezomib; first compound 1.265 µM): 1.04
relative viability (Bemcentinib + Bortezomib; first compound 4 µM): 1.03

UMC-11
relative viability (Bemcentinib + Trametinib; first compound 0.04 µM): 0.558
relative viability (Bemcentinib + Trametinib; first compound 0.1265 µM): 0.876
relative viability (Bemcentinib + Trametinib; first compound 0.4 µM): 0.712
relative viability (Bemcentinib + Trametinib; first compound 1.265 µM): 0.779
relative viability (Bemcentinib + Trametinib; first compound 4 µM): 0.744
relative viability ([1]; first compound 1 µM): 0.551
relative viability ([1]; first compound 3.162 µM): 0.601
relative viability ([1]; first compound 10 µM): 0.597
relative viability ([1]; first compound 31.62 µM): 0.525
relative viability ([1]; first compound 100 µM): 0.595
relative viability (Axitinib + Dasatinib; first compound 0.005 µM): 0.447
relative viability (Axitinib + Dasatinib; first compound 0.01581 µM): 0.442
relative viability (Axitinib + Dasatinib; first compound 0.05 µM): 0.448
relative viability (Axitinib + Dasatinib; first compound 0.1581 µM): 0.444
relative viability (Axitinib + Dasatinib; first compound 0.5 µM): 0.54
relative viability (Bemcentinib + Bortezomib; first compound 0.04 µM): 0.413
relative viability (Bemcentinib + Bortezomib; first compound 0.1265 µM): 0.771
relative viability (Bemcentinib + Bortezomib; first compound 0.4 µM): 0.724
relative viability (Bemcentinib + Bortezomib; first compound 1.265 µM): 0.428
relative viability (Bemcentinib + Bortezomib; first compound 4 µM): 0.682

PC-3 [JPC-3]
relative viability (Bemcentinib + Trametinib; first compound 0.04 µM): 0.664
relative viability (Bemcentinib + Trametinib; first compound 0.1265 µM): 0.775
relative viability (Bemcentinib + Trametinib; first compound 0.4 µM): 0.725
relative viability (Bemcentinib + Trametinib; first compound 1.265 µM): 0.632
relative viability (Bemcentinib + Trametinib; first compound 4 µM): 0.636
relative viability ([1]; first compound 3.162 µM): 0.742
relative viability ([1]; first compound 31.62 µM): 0.714
relative viability ([1]; first compound 100 µM): 0.642
relative viability (Axitinib + Dasatinib; first compound 0.005 µM): 1.07
relative viability (Axitinib + Dasatinib; first compound 0.01581 µM): 1.01
relative viability (Axitinib + Dasatinib; first compound 0.05 µM): 1.02
relative viability (Axitinib + Dasatinib; first compound 0.1581 µM): 1
relative viability (Axitinib + Dasatinib; first compound 0.5 µM): 1.01
relative viability (Bemcentinib + Bortezomib; first compound 0.04 µM): 0.803
relative viability (Bemcentinib + Bortezomib; first compound 0.1265 µM): 0.948
relative viability (Bemcentinib + Bortezomib; first compound 0.4 µM): 0.8
relative viability (Bemcentinib + Bortezomib; first compound 1.265 µM): 0.906
relative viability (Bemcentinib + Bortezomib; first compound 4 µM): 0.869

LU99A
relative viability (Bemcentinib + Trametinib; first compound 0.04 µM): 0.516
relative viability (Bemcentinib + Trametinib; first compound 0.1265 µM): 0.641
relative viability (Bemcentinib + Trametinib; first compound 0.4 µM): 0.55
relative viability (Bemcentinib + Trametinib; first compound 1.265 µM): 0.596
relative viability (Bemcentinib + Trametinib; first compound 4 µM): 0.51
relative viability ([1]; first compound 1 µM): 0.834
relative viability ([1]; first compound 3.162 µM): 0.919
relative viability ([1]; first compound 10 µM): 1.04
relative viability ([1]; first compound 100 µM): 0.863
relative viability (Axitinib + Dasatinib; first compound 0.005 µM): 0.626
relative viability (Axitinib + Dasatinib; first compound 0.01581 µM): 0.563
relative viability (Axitinib + Dasatinib; first compound 0.05 µM): 0.589
relative viability (Axitinib + Dasatinib; first compound 0.1581 µM): 0.577
relative viability (Axitinib + Dasatinib; first compound 0.5 µM): 0.475
relative viability (Bemcentinib + Bortezomib; first compound 0.04 µM): 1.11
relative viability (Bemcentinib + Bortezomib; first compound 0.1265 µM): 1.12
relative viability (Bemcentinib + Bortezomib; first compound 0.4 µM): 1.01
relative viability (Bemcentinib + Bortezomib; first compound 1.265 µM): 1.25
relative viability (Bemcentinib + Bortezomib; first compound 4 µM): 1.2

NCI-H2087
relative viability (Bemcentinib + Trametinib; first compound 0.04 µM): 0.192
relative viability (Bemcentinib + Trametinib; first compound 0.1265 µM): 0.193
relative viability (Bemcentinib + Trametinib; first compound 0.4 µM): 0.201
relative viability (Bemcentinib + Trametinib; first compound 1.265 µM): 0.211
relative viability (Bemcentinib + Trametinib; first compound 4 µM): 0.206
relative viability ([1]; first compound 1 µM): 0.252
relative viability ([1]; first compound 3.162 µM): 0.291
relative viability ([1]; first compound 10 µM): 0.262
relative viability ([1]; first compound 31.62 µM): 0.203
relative viability ([1]; first compound 100 µM): 0.267
relative viability (Axitinib + Dasatinib; first compound 0.005 µM): 0.852
relative viability (Axitinib + Dasatinib; first compound 0.01581 µM): 1.01
relative viability (Axitinib + Dasatinib; first compound 0.05 µM): 0.908
relative viability (Axitinib + Dasatinib; first compound 0.1581 µM): 0.837
relative viability (Axitinib + Dasatinib; first compound 0.5 µM): 0.861
relative viability (Bemcentinib + Bortezomib; first compound 0.04 µM): 0.736
relative viability (Bemcentinib + Bortezomib; first compound 0.1265 µM): 1.09
relative viability (Bemcentinib + Bortezomib; first compound 0.4 µM): 0.994
relative viability (Bemcentinib + Bortezomib; first compound 1.265 µM): 0.61
relative viability (Bemcentinib + Bortezomib; first compound 4 µM): 0.769

LCLC-97TM1
relative viability (Bemcentinib + Trametinib; first compound 0.04 µM): 0.206
relative viability (Bemcentinib + Trametinib; first compound 0.1265 µM): 0.195
relative viability (Bemcentinib + Trametinib; first compound 0.4 µM): 0.2
relative viability (Bemcentinib + Trametinib; first compound 1.265 µM): 0.232
relative viability (Bemcentinib + Trametinib; first compound 4 µM): 0.2
relative viability ([1]; first compound 3.162 µM): 0.272
relative viability ([1]; first compound 10 µM): 0.235
relative viability ([1]; first compound 100 µM): 0.121
relative viability (Axitinib + Dasatinib; first compound 0.005 µM): 0.834
relative viability (Axitinib + Dasatinib; first compound 0.01581 µM): 0.722
relative viability (Axitinib + Dasatinib; first compound 0.05 µM): 0.857
relative viability (Axitinib + Dasatinib; first compound 0.1581 µM): 0.753
relative viability (Axitinib + Dasatinib; first compound 0.5 µM): 0.842
relative viability (Bemcentinib + Bortezomib; first compound 0.04 µM): 0.571
relative viability (Bemcentinib + Bortezomib; first compound 0.1265 µM): 0.794
relative viability (Bemcentinib + Bortezomib; first compound 0.4 µM): 0.703
relative viability (Bemcentinib + Bortezomib; first compound 1.265 µM): 0.602
relative viability (Bemcentinib + Bortezomib; first compound 4 µM): 0.473
